Source: ChEMBL document CHEMBL5137067, “Spiro-naphthyridine Antagonists of the Melanocortin Receptor 4 for the Treatment of Cachexia Associated with Chronic Illness” (ACS Med Chem Lett, 2022)

How the values were obtained:
Melanocortin receptor 4 [1] = target: T1, Melanocortin receptor 4 (Homo sapiens, UniProt P32245); test: Displacement of [125I]-[Nle4-D-phe7]-alpha-MSH from to human MC4R expressed in CHO cells incubated for 2 hrs by liquid scintillation counting method; type: cell-based
Melanocortin receptor 4 [2] = target: T1, Melanocortin receptor 4; test: Antagonist activity at human MC4R expressed in CHO cells assessed as decrease in alpha-MSH induced cAMP level by measuring equilibrium binding constant preincubated for 30 mins followed by alpha-MSH addition measured after 30 mins by HTRF method; type: functional, cell-based; conditions: time 60.0 min

T1 sequence (P32245 whole entry): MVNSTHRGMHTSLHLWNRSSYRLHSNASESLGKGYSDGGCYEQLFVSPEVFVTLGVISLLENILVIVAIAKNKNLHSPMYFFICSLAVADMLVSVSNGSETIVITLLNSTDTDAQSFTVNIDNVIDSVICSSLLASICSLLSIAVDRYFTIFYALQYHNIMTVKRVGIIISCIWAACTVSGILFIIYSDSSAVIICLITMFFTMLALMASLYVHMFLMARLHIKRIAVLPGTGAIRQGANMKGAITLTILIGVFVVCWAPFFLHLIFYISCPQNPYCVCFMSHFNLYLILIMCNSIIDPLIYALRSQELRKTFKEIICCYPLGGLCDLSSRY

## Cc1nc2c(cc1-c1ncccn1)CC[C@@]1(CCN(C(=O)[C@H](C)c3ccc(OC(F)F)nc3)C1)N2
Melanocortin receptor 4 [1]
  Ki: > 200 nM

## COc1cc([C@@H](C)C(=O)N2CC[C@@]3(CCc4cc(-c5nnn(C)n5)c(C)nc4N3)C2)c(Cl)cn1
Melanocortin receptor 4 [2]; filed as antagonist
  Kb: 0.049 nM

## COc1cc([C@@H](C)C(=O)N2CC[C@@]3(CCc4cc(-c5nc6ccccn6n5)c(C)nc4N3)C2)c(Cl)cn1
Melanocortin receptor 4 [1]
  Ki: 0.28 nM
Melanocortin receptor 4 [2]; filed as antagonist
  Kb: 0.07 nM

## COc1cc([C@@H](C)C(=O)N2CC[C@]3(CCc4cc(-c5nnn(C)n5)c(C)nc4N3)C2)c(Cl)cn1
Melanocortin receptor 4 [2]; filed as antagonist
  Kb: 1.2 nM

## Cc1nc2c(cc1-c1ncccn1)CC[C@@]1(CCN(C(=O)C(C)c3cc(OC(F)F)ncc3Cl)C1)N2 (single isomer, unassigned)
Melanocortin receptor 4 [1]
  Ki: 0.54 nM
Melanocortin receptor 4 [2]; filed as antagonist
  Kb: 0.18 nM

## COc1cc([C@@H](C)C(=O)N2CC[C@@]3(CCc4cc(-c5nc(C(F)F)n(C)n5)c(C)nc4N3)C2)c(Cl)cn1
Melanocortin receptor 4 [2]; filed as antagonist
  Kb: 0.08 nM

## Cc1nc2c(cc1-c1ncccn1)CC[C@@]1(CCN(C(=O)C(C)c3ccc(Cl)cc3Cl)C1)N2 (stereo partly drawn)
Melanocortin receptor 4 [1]
  Ki: 82 nM
Melanocortin receptor 4 [2]
  Kb: > 96 nM

## Cc1nc2c(cc1-c1ncccn1)CC[C@@]1(CCN(C(=O)[C@@H](C)c3ccc(OC(F)F)nc3)C1)N2
Melanocortin receptor 4 [2]; filed as antagonist
  Kb: 8.5 nM

## COc1cc(OC)cc([C@@H](C)C(=O)N2CCC3(CCc4cc(-c5cnn(C)c5)c(C)nc4N3)C2)c1 (single isomer, unassigned)
Melanocortin receptor 4 [2]; filed as antagonist
  Kb: 0.4 nM

## Cc1nc2c(cc1-c1cnn(C)c1)CC[C@@]1(CCN(C(=O)C(C)c3ccc(OC(F)F)nc3)C1)N2 (stereo partly drawn)
Melanocortin receptor 4 [1]
  Ki: 57 nM
